Experimental data from patent US20190231757A1, “COMBINATION OF SPLEEN TYROSINE KINASE INHIBITORS AND OTHER THERAPEUTIC AGENTS” (Takeda Pharmaceutical Company Limited, priority 2016, published 2019).
Counter-ions that a name gives are not always drawn.

Legend:
Format in all cases: in vivo, mouse
Ly19 xenografts = experiment: Antitumor activity in SCID mice bearing Ly19 xenografts, bendamustine combination (Example 4); details: alone or combined
TMD8 DLBCL xenografts [1] = experiment: Antitumor activity in CB17 SCID mice bearing TMD8 DLBCL xenografts, ABT-199 or gemcitabine combination (Example 9); details: Day 14, alone or combined with Compound A
Description: Tumor growth inhibition was calculated on Day 14 of the study. The last measurement was taken on Day 29 of the study.
Experimental design: Female CB17 SCID mice (Taconic Biosciences; weight at treatment start was about 19 g) were inoculated subcutaneously in the flank (cell suspension) with 5.0×10^6 TMD8 cells. Tumor growth was monitored with vernier calipers. Tumor volume was calculated using the formula V=W^2×L/2, where V=volume, W=width and L=length of the tumor. When the mean tumor volume reached approximately 245 mm^3, the animals were randomized into 6 treatment groups (n=8/group). […] Tumor growth and body weight were measured twice per week. Tumor growth inhibition and body weight change were calculated on Day 14 of treatment.
Statistical analysis: The differences in the tumor growth trends over time between pairs of treatment groups were assessed using linear mixed effects regression models. These models account for the fact that each animal was measured at multiple time points. A separate model was fit for each comparison, and the areas under the curve (AUC) for each treatment group were calculated using the predicted values from the model. The percent decrease in AUC (dAUC) relative to the reference group was then calculated. […] Further details regarding pairwise comparisons are provided in the Example 2.
Drug combinations were assessed for synergy using observed AUC values. The change in AUC relative to the control was calculated for both single agent treatment groups as well as the combination group. The interaction between the two compounds was then assessed by comparing the change in AUC observed in the combination group to the sum of the changes observed in both single agents. The results can be divided into four categories: synergistic, additive, sub-additive, and antagonistic. Further details regarding combination analyses are provided in the Example 2.
Once a final analysis was selected, the tumor measurements observed on a date pre-specified by the researcher (typically the last day of treatment) were analyzed to assess tumor growth inhibition. For this analysis, a T/C ratio was calculated for each animal by dividing the tumor measurement for the given animal by the mean tumor measurement across all control animals. The T/C ratios across a treatment group were compared to the T/C ratios of the control group using a two-tailed Welch's t-test.

TMD8 DLBCL xenografts [2] = experiment: Antitumor activity in CB17 SCID mice bearing TMD8 DLBCL xenografts, bendamustine combination (Example 3); details: bendamustine 1 mg/kg IV BIW, alone or combined, Day 14
[3] = tested on: OCI-Ly10 human DLBCL xenografts; experiment: Antitumor activity in SCID mice bearing OCI-Ly10 human DLBCL xenografts, ibrutinib or bendamustine combination (Example 5); details: Day 21; Compound A 60 mg/kg PO QD; ibrutinib 6 mg/kg PO QD; bendamustine 1 mg/kg IV BIW (6 doses); alone or combined with Compound A; citrate
[4] = Day 14, Compound A 60 mg/kg PO QD x14, bendamustine 1.0 mg/kg IV BIW x2
[5] = Compound A 60 mg/kg, ABT-199 25 mg/kg, gemcitabine 5 mg/kg

Structure (SMILES): Cn1cc(-c2nc(N[C@@H]3CCCC[C@@H]3N)c(F)c3c2C(=O)NC3)cn1 [Compound A, 6-((1R,2S)-2-aminocyclohexylamino)-7-fluoro-4-(1-methyl-1H-pyrazol-4-yl)-1H-pyrrolo[3,4-c]pyridine-3 (2H)-one citrate]
- Mean Tumor Volume (mm^3) ± SEM at Day 14 (Ly19 xenografts; [4]): 1683.9 ± 167.1 mm^3
- TGI (%) (Ly19 xenografts; [4]): 32.6%
- dAUC (Ly19 xenografts; vs vehicle, Compound A 60 mg/kg, bendamustine 1.0 mg/kg): 18.8
- TGI (%) (TMD8 DLBCL xenografts [1]; Compound A 60 mg/kg PO QD, ABT-199 25 mg/kg PO QD, gemcitabine 5 mg/kg IP Q3D x4): 25.7%
- Mean Tumor Volume (mm^3) ± SEM (TMD8 DLBCL xenografts [1]; [5]): 1,100.2 ± 134.5 mm^3
- T/C (TMD8 DLBCL xenografts [1]; [5]): 0.74
- Mean Tumor Volume (mm^3) ± SEM (TMD8 DLBCL xenografts [2]; Compound A 60 mg/kg PO QD 14 d): 1,085.5 ± 173.3 mm^3
- T/C (TMD8 DLBCL xenografts [2]; Compound A 60 mg/kg PO QD): 0.61
- TGI (%) (TMD8 DLBCL xenografts [2]; Compound A 60 mg/kg PO QD): 38.5%
- TGI [3]: 38.8%
